Measured values: publication PMC6389848, “Characterization and structure‐guided engineering of the novel versatile terpene monooxygenase CYP109Q5 from Chondromyces apiculatus DSM436” (Microbial Biotechnology, 2018)

How the values were obtained:
CYP109B1 = biological target: T1, CYP109B1 (Bacillus subtilis, UniProt O34374); assay: in vitro biotransformation, GC-FID / GC-MS; format: biochemical; conditions: redox partners CamA/CamB from Pseudomonas putida, NAD(P)H, 1 mM substrate, 2 μM P450, pH 7.0, 30°C, 2 h
T1 construct: gene yjiB; purified enzyme; construct not described in main text
T1 sequence (O34374 1-396): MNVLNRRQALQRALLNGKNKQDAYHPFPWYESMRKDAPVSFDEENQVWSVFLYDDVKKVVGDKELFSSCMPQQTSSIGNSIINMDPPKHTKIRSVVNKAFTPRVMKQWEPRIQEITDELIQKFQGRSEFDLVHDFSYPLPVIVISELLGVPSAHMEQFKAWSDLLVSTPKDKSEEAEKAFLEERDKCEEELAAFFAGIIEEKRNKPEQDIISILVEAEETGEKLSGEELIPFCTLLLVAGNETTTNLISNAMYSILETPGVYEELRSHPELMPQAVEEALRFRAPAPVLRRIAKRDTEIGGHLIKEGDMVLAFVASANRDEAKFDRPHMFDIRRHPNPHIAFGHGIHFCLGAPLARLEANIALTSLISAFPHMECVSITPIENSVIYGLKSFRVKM

CYP109Q5 = biological target: T2, CYP109Q5 (Chondromyces apiculatus, UniProt A0A017T5A5); assay: in vitro biotransformation, HPLC; format: biochemical; conditions: redox partners CamA/CamB from Pseudomonas putida, NAD(P)H, 1 mM substrate, 2 μM P450, pH 7.0, 30°C
T2 construct: gene CAP_4855; native gene from genomic DNA in pBAD33, untagged, E. coli JW5510, partially purified by anion exchange
T2 sequence (A0A017T5A5 1-397): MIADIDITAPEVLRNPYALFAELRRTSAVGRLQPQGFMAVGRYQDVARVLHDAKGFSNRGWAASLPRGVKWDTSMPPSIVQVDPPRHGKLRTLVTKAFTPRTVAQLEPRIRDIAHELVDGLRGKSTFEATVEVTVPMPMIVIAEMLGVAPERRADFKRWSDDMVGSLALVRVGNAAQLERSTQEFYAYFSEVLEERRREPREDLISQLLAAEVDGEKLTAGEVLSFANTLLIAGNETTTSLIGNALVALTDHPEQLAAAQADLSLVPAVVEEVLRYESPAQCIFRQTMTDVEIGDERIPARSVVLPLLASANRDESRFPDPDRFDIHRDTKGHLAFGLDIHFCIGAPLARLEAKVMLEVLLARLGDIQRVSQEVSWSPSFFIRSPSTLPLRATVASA

Row | SMILES | in vitro biotransformation, GC-FID / GC-MS (CYP109B1) | in vitro biotransformation, HPLC (CYP109Q5)
1 | CC(=O)/C=C/C1=C(C)CCCC1(C)C [compound 1, β‐ionone] | The reference CYP109B1 hydroxylated β‐ionone exclusively in the allylic position | –
2 | O=C(O)Cc1ccccc1Nc1c(Cl)cccc1Cl [compound 26, diclofenac] | – | CYP109Q5 also exhibited activities towards diclofenac, mefenamic acid, nerolidol, camphor
